Measurements taken from patent US10898481B2 (priority 2018, dated 2021).

Tests used:
hA2a/CHO = hA2a/CHO (Homo sapiens (Human), UniProt P29274); assay: cAMP inhibition assay in hA2a/CHO cells, 10 μM adenosine; type: cell-based; conditions: read-out: cAMP & FLIPR IC50 (nM) hA2a;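 also: compounds added to cells 30 min ahead of adenosine, then a further 30 min at 37 °C with adenosine before cAMP detection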
Procedure: (§1) hA2a/CHO, hA2b/CHO, hA3/CHO and mA2a/CHO (Genscript) were plated at 5×10^3 cells/well into 384-well polystyrene plates at the day of experiment. Compounds were pre-incubated with cells for 30 min at 37° C., 5% CO2. Then 10 μM adenosine was added to the cells and incubated for 30 min at 37° C., 5% CO2. Detection reagent (CISBIO) was added and the plates were incubated for 60 min at room temperature. The signal was captured by Envision.

[1] = biological target: hADORA1/CHO (hA1 expressing) cells (Homo sapiens (Human), UniProt P30542); assay: cell-based; conditions: FLIPR inhibition, 10 μM adenosine, read-out: cAMP & FLIPR IC50 (nM) hA1
Sequence of hADORA1/CHO (hA1 expressing) cells (P30542 whole entry): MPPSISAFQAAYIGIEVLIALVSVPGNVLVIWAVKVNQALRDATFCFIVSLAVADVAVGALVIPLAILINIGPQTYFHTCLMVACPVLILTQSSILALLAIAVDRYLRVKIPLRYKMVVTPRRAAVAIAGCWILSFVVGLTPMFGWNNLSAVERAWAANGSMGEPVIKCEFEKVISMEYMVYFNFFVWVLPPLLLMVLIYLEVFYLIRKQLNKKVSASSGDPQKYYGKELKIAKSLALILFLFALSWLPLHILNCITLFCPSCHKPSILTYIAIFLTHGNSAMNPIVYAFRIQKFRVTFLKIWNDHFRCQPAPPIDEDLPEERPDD
Procedure: hADORA1/CHO (hA1 expressing) cells (Genscript) were plated at 1×10^4 cells/well into 384-well polystyrene plates one day before starting the experiment. On the day of experiment, the supernatant was discard and replaced with 40 μL of dye (FLIPR calcium 5 Assay Kit) per well and the plates were incubated for 60 mins at 37° C. plus 5% CO2. Then testing compounds were added at different concentrations for FLIPR™ inhibition assay. After a 400s incubation with compound, 10 μM adenosine was added into the cells, and the signal was captured by FLIPR.

hA2b/CHO = hA2b/CHO (Homo sapiens (Human), UniProt P29275); assay: cAMP inhibition assay in hA2b/CHO cells, 10 μM adenosine; type: cell-based; conditions: read-out: cAMP & FLIPR IC50 (nM) hA2b;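 also: cells exposed to compound 30 min at 37 °C, then stimulated with adenosine a further 30 min, cAMP read after 60 min at room temperature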
Sequence of hA2b/CHO (P29275 whole entry): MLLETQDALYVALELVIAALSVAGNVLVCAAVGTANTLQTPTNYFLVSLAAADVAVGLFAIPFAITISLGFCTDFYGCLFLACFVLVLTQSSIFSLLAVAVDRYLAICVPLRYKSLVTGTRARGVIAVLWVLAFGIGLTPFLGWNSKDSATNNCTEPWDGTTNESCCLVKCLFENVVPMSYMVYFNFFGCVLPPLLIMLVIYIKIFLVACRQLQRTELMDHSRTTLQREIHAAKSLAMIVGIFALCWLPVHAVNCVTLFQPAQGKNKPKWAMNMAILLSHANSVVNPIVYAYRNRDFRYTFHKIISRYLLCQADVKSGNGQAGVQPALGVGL
Procedure: as §1

mA2a/CHO = mA2a/CHO (Mus musculus (Mouse), UniProt Q60613); assay: cAMP inhibition assay in mA2a/CHO cells, 10 μM adenosine; type: cell-based; conditions: read-out: cAMP & FLIPR IC50 (nM) mA2a;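 also: compounds preincubated 30 min at 37 °C before the adenosine challenge, then 30 min further stimulation, readout after 60 min detection reagent incubation at room temperature in 384-well plates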
Sequence of mA2a/CHO (Q60613 whole entry): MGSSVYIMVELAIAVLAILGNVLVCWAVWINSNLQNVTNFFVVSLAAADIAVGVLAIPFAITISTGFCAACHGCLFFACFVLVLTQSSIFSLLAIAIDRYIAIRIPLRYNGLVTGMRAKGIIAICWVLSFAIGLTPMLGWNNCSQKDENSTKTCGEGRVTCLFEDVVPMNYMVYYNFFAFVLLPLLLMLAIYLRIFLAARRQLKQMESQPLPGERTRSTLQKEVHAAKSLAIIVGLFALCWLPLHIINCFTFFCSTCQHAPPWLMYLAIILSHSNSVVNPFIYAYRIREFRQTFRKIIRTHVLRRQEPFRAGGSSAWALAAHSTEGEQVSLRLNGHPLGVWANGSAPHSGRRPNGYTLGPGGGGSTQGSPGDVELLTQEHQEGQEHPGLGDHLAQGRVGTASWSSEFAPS
Procedure: as §1

Sequence of hA2a/CHO (P29274 whole entry): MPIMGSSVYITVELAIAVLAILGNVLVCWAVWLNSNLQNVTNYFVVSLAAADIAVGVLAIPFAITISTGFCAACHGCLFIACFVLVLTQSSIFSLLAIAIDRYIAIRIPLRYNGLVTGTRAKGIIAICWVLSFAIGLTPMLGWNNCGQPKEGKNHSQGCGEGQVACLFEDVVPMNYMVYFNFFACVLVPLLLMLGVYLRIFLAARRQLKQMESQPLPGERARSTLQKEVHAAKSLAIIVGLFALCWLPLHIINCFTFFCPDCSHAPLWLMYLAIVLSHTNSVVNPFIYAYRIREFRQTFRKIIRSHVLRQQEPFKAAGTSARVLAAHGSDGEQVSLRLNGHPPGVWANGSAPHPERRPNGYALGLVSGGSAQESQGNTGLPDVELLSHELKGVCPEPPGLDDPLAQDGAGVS

Row | SMILES | IC50 (hA2a/CHO) | IC50 [1] | IC50 (hA2b/CHO) | IC50 (mA2a/CHO)
1 | CN(C)c1cccc(CNC(=O)c2nc(-c3ccc(=O)n(C)c3)c(-c3ncco3)nc2N)n1 [Example 15, 3-amino-N-[[6-(dimethylamino)pyridin-2-yl]methyl]-6-(1-methyl-6-oxo-1,6-dihydropyridin-3-yl)-5-(1,3-oxazol-2-yl)pyrazine-2-carboxamide] | 39 nM | 804 nM | ≥ 10000 nM | 86 nM
2 | COc1cccc(CNC(=O)c2nc(-c3ccc(=O)n(C)c3)c(-c3ncco3)nc2N)n1 [Example 17] | 117 nM | 951 nM | ≥ 10000 nM | 132 nM
3 | Cc1cccc(CNC(=O)c2nc(-c3ccc(=O)n(C)c3)c(-c3ncco3)nc2N)n1 [Example 18, 3-amino-6-(1-methyl-6-oxo-1,6-dihydropyridin-3-yl)-N-[(6-methylpyridin-2-yl)methyl]-5-(1,3-oxazol-2-yl)pyrazine-2-carboxamide] | 105 nM | 1150 nM | ≥ 10000 nM | 116 nM
4 | Cn1cc(-c2nc(CNC(=O)c3ncccc3OC(F)F)c(N)nc2-c2ccc(F)cc2)ccc1=O [Example 21, N-[[3-amino-5-(4-fluorophenyl)-6-(1-methyl-6-oxo-1,6-dihydropyridin-3-yl)pyrazin-2-yl]methyl]-3-(difluoromethoxy)pyridine-2-carboxamide] | 98 nM | 18 nM | 638 nM | 73 nM
5 | Cn1cc(-c2nc(C(=O)NCc3ncccc3CO)c(N)nc2-c2ncco2)ccc1=O [Example 36, 3-amino-N-((3-(hydroxymethyl)pyridin-2-yl)methyl)-6-(1-methyl-6-oxo-1,6-dihydropyridin-3-yl)-5-(oxazol-2-yl)pyrazine-2-carboxamide] | 180 nM | 3010 nM | 2530 nM | 419 nM
6 | Nc1nc(-c2ncco2)c(-c2ccc(=O)n(C3CC3)c2)nc1C(=O)NCc1c(F)cccc1F [Example 38, 3-amino-6-(1-cyclopropyl-6-oxo-1,6-dihydropyridin-3-yl)-N-[(2,6-difluorophenyl)methyl]-5-(1,3-oxazol-2-yl)pyrazine-2-carboxamide] | 2.4 nM | 61 nM | 59 nM | 5.3 nM
7 | Cn1cc(-c2nc(C(=O)NCc3c(F)cccc3N3CCOCC3)c(N)nc2-c2ncco2)ccc1=O [Example 39, 3-amino-N-[[2-fluoro-6-(morpholin-4-yl)phenyl]methyl]-6-(1-methyl-6-oxo-1,6-dihydropyridin-3-yl)-5-(1,3-oxazol-2-yl)pyrazine-2-carboxamide] | 7.8 nM | 32 nM | 2120 nM | 3.3 nM
8 | Nc1nc(-c2ncco2)c(-c2ccc(=O)n(C3COC3)c2)nc1C(=O)NCc1c(F)cccc1F [Example 42, 3-amino-N-[(2,6-difluorophenyl)methyl]-5-(1,3-oxazol-2-yl)-6-[1-(oxetan-3-yl)-6-oxo-1,6-dihydropyridin-3-yl]pyrazine-2-carboxamide] | 14 nM | 51 nM | 102 nM | 16 nM
9 | Cc1nc(CNC(=O)c2nc(-c3ccc4nccn4c3)c(-c3ncco3)nc2N)cs1 [Example 44, 3-amino-6-(imidazo[1,2-a]pyridin-6-yl)-N-((2-methylthiazol-4-yl)methyl)-5-(oxazol-2-yl)pyrazine-2-carboxamide] | 131 nM | 10000 nM | 2110 nM | 786 nM
10 | Nc1nc(-c2ncco2)c(-c2ccc3nccn3c2)nc1C(=O)NCc1cscn1 [Example 45, 3-amino-6-[imidazo[1,2-a]pyridin-6-yl]-5-(1,3-oxazol-2-yl)-N-[(1,3-thiazol-4-yl)methyl]pyrazine-2-carboxamide] | 94 nM | 10000 nM | 912 nM | 566 nM
